# Data published in patent US20250127806A1, “INJECTABLE LIQUID PHARMACEUTICAL COMPOSITION CONTAINING GEMCITABINE AND A CYTIDINE DEAMINASE INHIBITOR” (ST. JOHN'S UNIVERSITY, priority 2021, published 2025).
# Legend:
# [1] = Saturation solubility of Gemcitabine free base in various solvents; format: physicochemical; details: for solubility: thermodynamic from solid
# Description: In order to select a biocompatible solvent for the development of in situ depot, we carried out saturation solubility of Gemcitabine free base in 12 different organic solvent which are safe to be used for subcutaneous administration in mice. […] However, since NMP is already used in marketed in situ depot formulations and is FDA approved, we used it as a biocompatible solvent to prepare the various polymeric solutions.
# [2] = system: MIAPACA-2 xenograft tumors; format: in vivo; details: s.c. depot every 3rd day, four doses, Gem 10 mg/kg, Zeb 76 mg/kg
# Method: All experiments were done in accordance with the guidelines of the Institutional Animal Care and Use Committee (IACUC) at St John's university. MiaPaca-2 pancreatic cancer cells were maintained in DMEM medium supplemented with 100 U/mL penicillin, 1% streptomycin, 10% fetal bovine serum (FBS), in a humidified 5% CO2 atmosphere at 37° C. After acclimation for 7 days, mice were subcutaneously (s.c.) injected in the right flank with Matrigel (BD Biosciences, San Jose, CA, USA) containing 1.5×10^6 MiaPaca-2 cells. The mice were monitored closely for tumor growth by palpation and visual examination. Palpable and measurable tumors were found beginning 5-7 days after cells were injected. Tumor volume was calculated using the equation: tumor volume=(length×width×height)/2. Once the tumors reached a size of 80-120 mm^3 mice were randomly divided into 4 groups to receive s.c. injection (N=6 in each group) of respective in situ depot formulation.
# Total four doses of each formulation were given. A syringe with 27G needle was used to administer 10 ul of depot formulation. Post administration, the syringe was left in the same position for 30 sec in order to obviate the sudden leakage of formulation and to facilitate the gelling of entire volumes of formulations at 37° C. Measurements of tumor size and body weight was taken every alternate day using digital calipers. […]
smiles,measurement,setting,value
"Nc1ccn([C@@H]2O[C@H](CO)[C@@H](O)C2(F)F)c(=O)n1 [Gemcitabine free base, Gemcitabine]",solubility,"[1]; N,N-dimethylacetamide (DMA), organic solvent or mixture, saturation solubility in N,N Dimethylacetamide (DMA)",~616 mg/mL
same,solubility,"[1]; N-methyl pyrrolidone (NMP), organic solvent or mixture, saturation solubility in N-methyl pyrrolidone (NMP)",~470 mg/mL
same,solubility,"[1]; diglyme, organic solvent or mixture, saturation solubility in Diglyme",3.81 ± 0.63 mg/mL
same,solubility,"[1]; ethyl lactate, organic solvent or mixture, saturation solubility in Ethyl lactate",18.4 ± 0.34 mg/mL
same,solubility,"[1]; glycerol formal, organic solvent or mixture, saturation solubility in Glycerol formal",104 ± 2.03 mg/mL
same,solubility,"[1]; isosorbide dimethyl ether, organic solvent or mixture, saturation solubility in Isosorbide dimethyl ether",8.39 ± 0.4 mg/mL
same,solubility,"[1]; polyethylene glycol 300, organic solvent or mixture, saturation solubility in Polyethylene glycol 300",185 ± 13.3 mg/mL
same,solubility,"[1]; polyethylene glycol 400, organic solvent or mixture, saturation solubility in Polyethylene glycol 400",151 ± 2.89 mg/mL
same,solubility,"[1]; propylene glycol, organic solvent or mixture, saturation solubility in Propylene glycol",160 ± 8.29 mg/mL
same,Solubility of Gemcitabine free base,[1]; saturation solubility in N-methyl pyrrolidone (NMP),470.70 ± 3.56 mg/mL
same,solubility,"[1]; solketal, organic solvent or mixture, saturation solubility in Solketal",17.73 ± 0.008 mg/mL
same,solubility,"[1]; tetraglycol/glycofurol, organic solvent or mixture, saturation solubility in Tetraglycol/Glycofurol",129 ± 1.49 mg/mL
same,solubility,"[1]; tetrahydrofurfuryl alcohol, organic solvent or mixture, saturation solubility in Tetrahydrofurfuryl alcohol",221 ± 4.97 mg/mL
same,solubility,"[1]; water, saturation solubility in Water",21.8 ± 1.44 mg/mL
same,Antitumor efficacy (tumor volume),[2]; FIG. 3(a),decreased the tumor volume
same,Median survival,[2]; FIG. 3(c),around 18 days
